# Experimental data: article PMC10850145, “Hormonal steroids induce multidrug resistance and stress response genes in Neisseria gonorrhoeae by binding to MtrR” (Nature Communications, 2024)
# Values joined by “and” are separate entries in the source; they are usually repeats but may differ in a detail not shown here. Equal values may be shown once. Read-outs that look alike come from different tables or passages of the source.
# System: mtrC-lacZ expression
# Type: cell-based, Neisseria gonorrhoeae
# Details: for Miller units, single well / Miller units, Mean: upper 4-row block; for Miller units, single well: individual replicate; for Miller units, Mean: mean of 4 wells; for β-galactosidase activity, single replicate: ΔmtrR + mtrR R176E in trans; for β-galactosidase activity, individual replicate / β-galactosidase activity, Miller units (single replicate): mtrR WT in cis; for β-galactosidase activity, individual replicate: single replicate values, second (right) block
# [1] = 6.25 µM hormone, plate columns 1-6 (WT)
# [2] = 6.25 µM hormone, plate columns 7-12 (second strain, not WT)
# [3] = 12.5 µM hormone, plate columns 1-6 (WT)
# [4] = 12.5 µM hormone, plate columns 7-12 (second strain, not WT)
# [5] = 25 µM hormone, plate columns 7-12 (second strain, not WT)
# [6] = 50 µM hormone, plate columns 1-6 (WT)
# [7] = 50 µM hormone, plate columns 7-12 (second strain, not WT)
# [8] = mtrC-lacZ, ΔmtrR + mtrR D171A in trans, 6.25 µM hormone, single replicate
# [9] = mtrC-lacZ, ΔmtrR + mtrR D171A in trans, 12.5 µM hormone, single replicate
# [10] = mtrC-lacZ, ΔmtrR + mtrR D171A in trans, 25 µM hormone, single replicate
# [11] = mtrC-lacZ, ΔmtrR + mtrR D171A in trans, 50 µM hormone, single replicate
# [12] = mtrC-lacZ, ΔmtrR + mtrR WT in trans, 6.25 µM hormone, single replicate
# [13] = mtrC-lacZ, ΔmtrR + mtrR WT in trans, 12.5 µM hormone, single replicate
# [14] = mtrC-lacZ, ΔmtrR + mtrR WT in trans, 25 µM hormone, single replicate
# [15] = mtrC-lacZ, ΔmtrR + mtrR WT in trans, 50 µM hormone, single replicate
smiles,measurement,setting,value
"CC(=O)[C@H]1CC[C@H]2[C@@H]3CCC4=CC(=O)CC[C@]4(C)[C@H]3CC[C@]12C [Progesterone, progesterone]",Miller units,"6.25 µM hormone, plate columns 1-6 (WT), plate rows 1-4 (mtrC), single well",82 Miller units and 48 Miller units and 89 Miller units
same,"Miller units, single well",[1],82 Miller units and 48 Miller units and 89 Miller units and 47 Miller units
same,"Miller units, Mean",[1],66 Miller units
same,Miller units,"6.25 µM hormone, plate columns 7-12 (second strain not given), plate rows 1-4 (mtrC), single well",315 Miller units and 180 Miller units and 172 Miller units
same,"Miller units, single well",[2],315 Miller units and 180 Miller units and 172 Miller units and 146 Miller units
same,"Miller units, Mean",[2],203 Miller units
same,Miller units,"12.5 µM hormone, plate columns 1-6 (WT), plate rows 1-4 (mtrC), single well",112 Miller units and 91 Miller units and 70 Miller units
same,"Miller units, single well",[3],112 Miller units and 91 Miller units and 70 Miller units and 43 Miller units
same,"Miller units, Mean",[3],79 Miller units
same,Miller units,"12.5 µM hormone, plate columns 7-12 (second strain not given), plate rows 1-4 (mtrC), single well",228 Miller units and 168 Miller units and 142 Miller units
same,"Miller units, single well",[4],228 Miller units and 168 Miller units and 142 Miller units and 163 Miller units
same,"Miller units, Mean",[4],175 Miller units
same,Miller units,"25 µM hormone, plate columns 1-6 (WT), plate rows 1-4 (mtrC), single well",152 Miller units and 193 Miller units
same,"Miller units, single well","25 µM hormone, plate columns 1-6 (WT)",152 Miller units and 193 Miller units and 125 Miller units
same,Miller units,"25 µM hormone, plate columns 7-12 (second strain not given), plate rows 1-4 (mtrC), single well",253 Miller units and 170 Miller units and 160 Miller units
same,"Miller units, single well",[5],253 Miller units and 170 Miller units and 160 Miller units and 118 Miller units
same,"Miller units, Mean",[5],175 Miller units
same,Miller units,"50 µM hormone, plate columns 1-6 (WT), plate rows 1-4 (mtrC), single well",185 Miller units and 157 Miller units and 126 Miller units
same,"Miller units, single well",[6],185 Miller units and 157 Miller units and 126 Miller units and 75 Miller units
same,"Miller units, Mean",[6],136 Miller units
same,Miller units,"50 µM hormone, plate columns 7-12 (second strain not given), plate rows 1-4 (mtrC), single well",186 Miller units and 138 Miller units and 118 Miller units
same,"Miller units, single well",[7],186 Miller units and 138 Miller units and 118 Miller units and 96 Miller units
same,"Miller units, Mean",[7],134 Miller units
same,induction of mtrC expression,"complemented (MtrR+) strains, increasing hormone",could be induced
same,induction of mtrC expression,loss of MtrR or MtrR-D171A strain,abrogated
same,Miller units,[8],150 Miller units and 142 Miller units
same,β-galactosidase activity (Miller units),[8],147 Miller units and 144 Miller units and 150 Miller units and 142 Miller units
same,Miller units,[9],139 Miller units and 154 Miller units
same,β-galactosidase activity (Miller units),[9],146 Miller units and 130 Miller units and 139 Miller units and 154 Miller units
same,Miller units,[10],164 Miller units
same,β-galactosidase activity (Miller units),[10],161 Miller units and 184 Miller units and 164 Miller units
same,Miller units,[11],111 Miller units and 106 Miller units
same,β-galactosidase activity (Miller units),[11],114 Miller units and 91 Miller units and 111 Miller units and 106 Miller units
same,Miller units,[12],71 Miller units and 75 Miller units and 104 Miller units and 85 Miller units
same,β-galactosidase activity (Miller units),[12],71 Miller units and 75 Miller units and 104 Miller units and 85 Miller units
same,Miller units,[13],90 Miller units and 80 Miller units and 98 Miller units and 88 Miller units
same,β-galactosidase activity (Miller units),[13],90 Miller units and 80 Miller units and 98 Miller units and 88 Miller units
same,Miller units,[14],120 Miller units and 101 Miller units and 124 Miller units and 107 Miller units
same,β-galactosidase activity (Miller units),[14],120 Miller units and 101 Miller units and 124 Miller units and 107 Miller units
same,Miller units,[15],125 Miller units and 123 Miller units and 130 Miller units and 139 Miller units
same,β-galactosidase activity (Miller units),[15],125 Miller units and 123 Miller units and 130 Miller units and 139 Miller units
same,β-galactosidase activity (Miller units),"mtrC-lacZ, ΔmtrR strain, 6.25 µM hormone, single replicate",239 Miller units
same,β-galactosidase activity (Miller units),"mtrC-lacZ, ΔmtrR strain, 12.5 µM hormone, single replicate",205 Miller units
same,β-galactosidase activity (Miller units),"mtrC-lacZ, ΔmtrR strain, 25 µM hormone, single replicate",223 Miller units
same,β-galactosidase activity (Miller units),"mtrC-lacZ, ΔmtrR strain, 50 µM hormone, single replicate",197 Miller units
same,"β-galactosidase activity, single replicate","mtrCDE block (c1-c37), 6.25 µM",221 Miller units and 281 Miller units and 181 Miller units and 184 Miller units
same,"β-galactosidase activity, single replicate","mtrCDE block (c1-c37), 12.5 µM",215 Miller units and 235 Miller units and 172 Miller units and 208 Miller units
same,"β-galactosidase activity, single replicate","mtrCDE block (c1-c37), 25 µM",255 Miller units and 287 Miller units and 177 Miller units and 185 Miller units
same,"β-galactosidase activity, single replicate","mtrCDE block (c1-c37), 50 µM",296 Miller units and 219 Miller units and 227 Miller units and 184 Miller units
same,"β-galactosidase activity, individual replicate",6.25 µM hormone,41 Miller units and 35 Miller units
same,"β-galactosidase activity, Miller units (single replicate)","6.25 µM, first data set (c15-c36)",115 Miller units and 113 Miller units and 101 Miller units and 103 Miller units
same,"β-galactosidase activity, Miller units (single replicate)","6.25 µM, second data set (c53-c74)",37 Miller units and 29 Miller units
same,"β-galactosidase activity, individual replicate",12.5 µM hormone,61 Miller units and 54 Miller units
same,"β-galactosidase activity, Miller units (single replicate)","12.5 µM, first data set (c15-c36)",153 Miller units and 144 Miller units and 132 Miller units
same,"β-galactosidase activity, Miller units (single replicate)","12.5 µM, second data set (c53-c74)",41 Miller units and 34 Miller units
same,"β-galactosidase activity, individual replicate",25 µM hormone,90 Miller units and 65 Miller units
same,"β-galactosidase activity, Miller units (single replicate)","25 µM, first data set (c15-c36)",256 Miller units and 186 Miller units and 175 Miller units and 160 Miller units
same,"β-galactosidase activity, Miller units (single replicate)","25 µM, second data set (c53-c74)",66 Miller units and 58 Miller units
same,"β-galactosidase activity, individual replicate",50 µM hormone,111 Miller units and 114 Miller units
same,"β-galactosidase activity, Miller units (single replicate)","50 µM, first data set (c15-c36)",228 Miller units and 242 Miller units and 200 Miller units and 220 Miller units
same,"β-galactosidase activity, Miller units (single replicate)","50 µM, second data set (c53-c74)",91 Miller units and 73 Miller units
same,"β-galactosidase activity, single replicate","second block of sheet (c39-c76), 6.25 µM",130 Miller units and 89 Miller units and 76 Miller units and 71 Miller units
same,"β-galactosidase activity, single replicate","second block of sheet (c39-c76), 12.5 µM",125 Miller units and 104 Miller units and 71 Miller units and 67 Miller units
same,"β-galactosidase activity, single replicate","second block of sheet (c39-c76), 25 µM",151 Miller units and 130 Miller units and 84 Miller units and 80 Miller units
same,"β-galactosidase activity, single replicate","second block of sheet (c39-c76), 50 µM",130 Miller units and 108 Miller units and 88 Miller units and 66 Miller units
